The text below walks through data of patent US20100094000A1, “PYRAZOLE COMPOUNDS” (TAKEDA PHARMACEUTICAL COMPANY LIMITED, priority 2008, published 2010).

System in one data set: not given
Experiment: not given
Details: not given
For `Cc1nn(C)c(-c2ccc(F)cc2)c1-c1cc(Cl)c2c(c1)NC(=O)CO2` [Example 32, 8-Chloro-6-[5-(4-fluorophenyl)-1,3-dimethyl-1H-pyrazol-4-yl]-2H-1,4-benzoxazin-3(4H)-one], the melting point (as a rule, the temperature of the solid-liquid transition) lay in the range of 260.2 to 260.5 °C.

Regarding `[2H]C1([2H])Oc2ccc(-c3c(C)nn(CC(C)(F)F)c3-c3ccc(F)cc3)cc2NC1=O` [Example 174], the melting point fell in the range of 205 to 206 °C.

`CCOC(=O)CCC(=O)OCC(F)(F)Cn1nc(C)c(-c2ccc3c(c2)NC(=O)CO3)c1-c1ccc(F)cc1` [Example 185, 2,2-Difluoro-3-[5-(4-fluorophenyl)-3-methyl-4-(3-oxo-3,4-dihydro-2H-1,4-benzoxazin-6-yl)-1H-pyrazol-1-yl]propyl ethyl butanedioate] showed a melting point of 100 °C.

`CCCCCCCCCCCCCCCC(=O)OCC(F)(F)Cn1nc(C)c(-c2ccc3c(c2)NC(=O)CO3)c1-c1ccc(F)cc1` [Example 186, 2,2-Difluoro-3-[5-(4-fluorophenyl)-3-methyl-4-(3-oxo-3,4-dihydro-2H-1,4-benzoxazin-6-yl)-1H-pyrazol-1-yl]propyl hexadecanoate] showed a melting point of 106 °C.

The molecule `CCOC(=O)OCC(F)(F)Cn1nc(C)c(-c2ccc3c(c2)NC(=O)CO3)c1-c1ccc(F)cc1` [Example 187, 2,2-Difluoro-3-[5-(4-fluorophenyl)-3-methyl-4-(3-oxo-3,4-dihydro-2H-1,4-benzoxazin-6-yl)-1H-pyrazol-1-yl]propyl ethyl carbonate] showed a melting point of 142 °C.

`CNC(=O)OCC(F)(F)Cn1nc(C)c(-c2ccc3c(c2)NC(=O)CO3)c1-c1ccc(F)cc1` [Example 198, 2,2-Difluoro-3-[5-(4-fluorophenyl)-3-methyl-4-(3-oxo-3,4-dihydro-2H-1,4-benzoxazin-6-yl)-1H-pyrazol-1-yl]propyl methylcarbamate] showed a melting point of 112 °C.

The target in another data set is T1, Human Mineralocorticoid Receptor (hMR) (Homo sapiens, UniProt P08235).
T1 construct: To obtain the full-length hMR cDNA, pB-hMR (i) was digested with XhoI and PvuI; expressed in transfected cells; host or cells: FreeStyle 293 cells transiently transfected with pMCMVneo-hMR; supernatant of the freeze-thaw lysate (hMR lysate)
T1 sequence (P08235 1-984): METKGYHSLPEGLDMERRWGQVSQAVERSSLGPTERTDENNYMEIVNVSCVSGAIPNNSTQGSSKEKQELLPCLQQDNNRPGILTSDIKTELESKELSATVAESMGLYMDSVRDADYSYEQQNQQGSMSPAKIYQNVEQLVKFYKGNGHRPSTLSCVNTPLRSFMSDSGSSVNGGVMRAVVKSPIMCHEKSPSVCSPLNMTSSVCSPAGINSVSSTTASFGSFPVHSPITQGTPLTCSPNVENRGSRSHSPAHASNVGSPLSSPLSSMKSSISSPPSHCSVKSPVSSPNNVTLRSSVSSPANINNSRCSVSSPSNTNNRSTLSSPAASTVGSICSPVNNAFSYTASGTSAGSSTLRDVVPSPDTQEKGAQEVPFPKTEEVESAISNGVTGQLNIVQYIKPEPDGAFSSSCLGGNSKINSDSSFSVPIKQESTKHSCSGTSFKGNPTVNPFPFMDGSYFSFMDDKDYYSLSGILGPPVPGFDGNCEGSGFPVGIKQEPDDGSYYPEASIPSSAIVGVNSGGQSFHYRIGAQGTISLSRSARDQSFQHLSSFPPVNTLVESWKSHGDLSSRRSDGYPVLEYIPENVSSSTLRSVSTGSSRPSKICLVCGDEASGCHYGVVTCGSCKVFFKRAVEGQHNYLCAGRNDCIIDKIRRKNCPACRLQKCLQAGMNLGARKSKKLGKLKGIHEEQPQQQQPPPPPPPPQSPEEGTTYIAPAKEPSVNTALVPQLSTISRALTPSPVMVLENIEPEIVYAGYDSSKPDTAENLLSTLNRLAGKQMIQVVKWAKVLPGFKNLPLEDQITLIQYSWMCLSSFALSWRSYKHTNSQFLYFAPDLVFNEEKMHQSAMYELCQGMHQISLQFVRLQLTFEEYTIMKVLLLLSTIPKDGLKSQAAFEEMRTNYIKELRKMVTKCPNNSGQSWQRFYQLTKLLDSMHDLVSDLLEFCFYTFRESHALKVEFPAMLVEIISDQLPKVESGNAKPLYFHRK
Put plainly: Inhibition of binding of hMR and [3H]-aldosterone (hMR lysate, charcoal separation). The following applies: test compound at 10^−5 M; 10 nM [3H]-aldosterone; hMR lysate; 16 hr at 4° C.; read-out: Inhibition rate (at 10^−5 M). The protocol:
The following procedures described in this Example were carried out according to the methods described in Molecular Cloning—Cold Spring Harbor Laboratory (1989) or protocols specified by manufacturers.
(1) Cloning of Human Mineralocorticoid Receptor (hMR) cDNA
hMR cDNA was amplified by polymerase chain reaction (PCR) from human kidney cDNA library. Full-length cDNA was constructed from two fragments of hMR cDNA amplified separately. The primers were designed referring to the nucleotide sequence of hMR cDNA reported by Arriza et. al (Science 1987; 237: 268-275).
The PCR reactions were carried out using PyrobestR® DNA polymerase (Takara). The PCR products were electrophoresed in agarose gel, and 1.7 kb (region (i)) and 1.5 kb (region (ii)) DNA fragments were recovered. Each DNA fragment was inserted into pCR®4Blunt-TOPO® vector (Invitrogen). The resulting plasmids thus obtained were designated as pB-hMR (i) and pB-hMR (ii). To obtain the full-length hMR cDNA, pB-hMR (i) was digested with XhoI and PvuI, and pB-hMR (ii) was digested with PvuI and KpnI, respectively, and the two cDNA fragments were ligated into pBlueScript®IISK+ vector (Stratagene). The resulting plasmid thus obtained was designated as pB-hMR.
pMCMVneo (described in WO03/099793) was digested with XhoI and KpnI, and 5.6 kb fragment was ligated with 2.9 kb hMR cDNA fragment obtained by digestion of pB-hMR (described in above (1)) with XhoI and KpnI. The plasmid thus obtained was designated as pMCMVneo-hMR.
FreeStyle 293 cells were inoculated at 3×10^8 cells in 270 ml FreeStyle™ 293 Expression Medium (Invitrogen) in a 1000 ml Erlenmeyer flask. The cells were treated with 30 ml of the transfection mixture containing 300 μg of pMCMVneo-hMR obtained in above (2) and 400 μl of 293fectin™ Reagent (Invitrogen). The transfected cells were cultivated for 48 hr at 37° C. in 8% CO2 atmosphere at 125 rpm. The cultivated cells were centrifuged and washed with TEG buffer (10 mM Tris-HCl (pH 7.2), 50 mM EDTA, 10% glycerol), and resuspended in 10 ml TEGM buffer (10 mM Tris-HCl (pH 7.2), 1 mM EDTA, 10% glycerol, 1 mM β-mercaptoethanol, 10 mM sodium molybdate, 1 mM dithiothreitol, 2 tablets/100 ml of protease inhibitor cocktail tablets (Roche)). The cell suspension was frozen with liquid nitrogen and thawed on ice, and ultra-centrifuged at 186,000×g for 20 min at 4° C. The supernatant fraction including hMR (hMR lysate) was collected and stored at −80° C.
(4) Measurement of Inhibition Activity Against Binding of hMR and Aldosterone
[^3H]-Aldosterone (Amersham Biosciences) as ligand was added at 10 nM to the reaction mixture including test compound at various concentration and hMR lysate (lot.19: 0.675 mg/mL, lot.20: 0.675 mg/mL, lot.21: 0.765 mg/mL, lot.22: 0.900 mg/mi, lot.23: 0.750 mg/mL) obtained in above (3) and mixture was filled up to 50.5 μl with TEGM buffer. The reaction mixture was incubated for 16 hr at 4° C. and 35 μl of dextran/gelatin coated charcoal suspension (5% charcoal, 0.5% dextran T-70 (Amersham Biosciences), 0.1% gelatin (SIGMA), 10 mM Tris HCl (pH 7.2), 1 mM EDTA) was added thereto to separate bound and free radioactive aldosterone. The mixture containing charcoal was incubated for 10 min at 4° C. and centrifuged at 910×g for 10 min at 4° C.
Radioactivity in 30 μl of the supernatant was measured by TopCount™ (Packard).
For the determination of nonspecific binding, cold Aldosterone instead of drug was added to reaction mixture at 100 μM. Specific binding was determined by subtracting nonspecific binding from total binding.
With `Cc1nn(C)c(-c2ccc(F)cc2)c1-c1ccc2c(c1)NC(=O)CO2` [Example 1, 6-[5-(4-Fluorophenyl)-1,3-dimethyl-1H-pyrazol-4-yl]-2H-1,4-benzoxazin-3(4H)-one], the inhibition – broadly, the percentage by which the read-out fell short of the control – at 10 µM was ≥ 90%.

Turning to `Cc1nn(CCS(C)(=O)=O)c(-c2ccc(F)cc2)c1-c1ccc2c(c1)NC(=O)CO2` [Example 6, 6-{5-(4-Fluorophenyl)-3-methyl-1-[2-(methylsulfonyl)ethyl]-1H-pyrazol-4-yl}-2H-1,4-benzoxazin-3(4H)-one], the inhibition at 10 µM is ≥ 90%.

Consider `Cc1nn(CCC(F)(F)CO)c(-c2ccc(F)cc2)c1-c1ccc2c(c1)NC(=O)CO2` [Example 25, 6-[1-(3,3-Difluoro-4-hydroxybutyl)-5-(4-fluorophenyl)-3-methyl-1H-pyrazol-4-yl]-2H-1,4-benzoxazin-3(4H)-one], for which the inhibition at 10 µM is ≥ 90%.

For the molecule `CC(=O)OCC(F)(F)Cn1nc(C)c(-c2ccc3c(c2)NC(=O)CO3)c1-c1ccc(F)cc1` [Example 26, 2,2-Difluoro-3-[5-(4-fluorophenyl)-3-methyl-4-(3-oxo-3,4-dihydro-2H-1,4-benzoxazin-6-yl)-1H-pyrazol-1-yl]propyl acetate], the inhibition at 10 µM is ≥ 90%.

Consider `Cc1nn(CC(C)(F)F)c(-c2ccc(F)cc2)c1-c1ccc2c(c1)NC(=O)CO2` [Example 83, 6-[1-(2,2-Difluoropropyl)-5-(4-fluorophenyl)-3-methyl-1H-pyrazol-4-yl]-2H-1,4-benzoxazin-3(4H)-one], for which the inhibition at 10 µM was ≥ 90%.

Consider `CC(=O)Cn1nc(C)c(-c2ccc3c(c2)NC(=O)CO3)c1-c1ccc(F)cc1` [Example 87, 6-[5-(4-Fuorophenyl)-3-methyl-1-(2-oxopropyl)-1H-pyrazol-4-yl]-2H-1,4-benzoxazin-3(4H)-one], for which the inhibition at 10 µM is ≥ 90%.

Turning to `Cc1nn(CC(F)(F)CO)c(-c2ccc(F)cc2)c1-c1ccc2c(c1)NC(=O)CO2` [Example 109, 6-[1-(2,2-Difluoro-3-hydroxypropyl)-5-(4-fluorophenyl)-3-methyl-1H-pyrazol-4-yl]-2H-1,4-benzoxazin-3(4H)-one], the inhibition at 10 µM was ≥ 90%.

With `Cc1nn(CC(C)(C)CO)c(-c2ccc(F)cc2)c1-c1ccc2c(c1)NC(=O)CO2` [Example 125, 6-[5-(4-Fluorophenyl)-1-(3-hydroxy-2,2-dimethylpropyl)-3-methyl-1H-pyrazol-4-yl]-2H-1,4-benzoxazin-3(4H)-one], the inhibition at 10 µM was ≥ 90%.

As to `Cc1nn(CC(F)(F)CO)c(-c2ccc(F)cc2)c1-c1ccc2c(c1C)NC(=O)CO2` [Example 128, 6-[1-(2,2-Difluoro-3-hydroxypropyl)-5-(4-fluorophenyl)-3-methyl-1H-pyrazol-4-yl]-5-methyl-2H-1,4-benzoxazin-3(4H)-one], the inhibition at 10 µM is ≥ 90%.

For the molecule `Cc1nn(Cc2cccnc2)c(-c2ccc(F)cc2)c1-c1ccc2c(c1)NC(=O)CO2` [Example 135, 6-[5-(4-Fluorophenyl)-3-methyl-1-(pyridin-3-ylmethyl)-1H-pyrazol-4-yl]-2H-1,4-benzoxazin-3(4H)-one], the inhibition at 10 µM is ≥ 90%.

As for `Cc1nn(CC2CCOC2)c(-c2ccc(F)cc2)c1-c1ccc2c(c1)NC(=O)CO2` (stereo not drawn) [Example 146, 6-[5-(4-Fluorophenyl)-3-methyl-1-(tetrahydrofuran-3-ylmethyl)-1H-pyrazol-4-yl]-2H-1,4-benzoxazin-3(4H)-one], the inhibition at 10 µM is ≥ 90%.

Consider `Cc1nn(C[C@@H]2CCC(=O)O2)c(-c2ccc(F)cc2)c1-c1ccc2c(c1)NC(=O)CO2` [Example 159, 6-[5-(4-Fluorophenyl)-3-methyl-1-{[(2S)-5-oxotetrahydrofuran-2-yl]methyl}-1H-pyrazol-4-yl]-2H-1,4-benzoxazin-3(4H)-one], for which the inhibition at 10 µM is ≥ 90%.
